Reference: patent US6069132A, “Phosphazole compounds” (priority 1997, dated 2000)
Converted amounts (≈) assume the structure as drawn.

Columns and labels:
[1] = tested on: TNFα; experiment: Inhibition of TNFα production in LPS-stimulated THP-1 cells (ELISA); format: cell-based, human; settings: for IC50: Homo sapiens, Table 2, LPS-stimulated THP-1, 6 h post-stimulation
Procedure: (§1) Cell line. THP-1 cells (human monocyte) were maintained in RPMI 1640 medium containing 25 mM Hepes buffer, 2 mM L-glutamine, 50 units of penicillin per mL, 50 μg of streptomycin sulfate per mL, and 10% heat-inactivated fetal bovine serum (FBS) in a humidified incubator containing 5% CO2. The cells were split 1:4 weekly as recommended by the American Type Culture Collection (ATCC).
(§2) TNFα assay. Varying concentrations of the test compound or control compound were added to THP-1 cells plated at a density of 1×10^6cells/mL in 600 μL of 10% RPMI in a 48 well plate. After one hour the cells were stimulated with 0.5 μg of lipopolysaccharide (LPS; Sigma, lot number 43H40491) per mL. Six hours post-stimulation supernatants were collected and assayed for TNFα or IL-1β production using a commercially available cytokine detection ELISA (Enzyme Linked Immunosorbent Assay) kit according to the suppliers instructions. A suitable assay kit may be obtained from Biosource, or R and D systems. A novel xanthine analog, HWA-3138, having the structure (as shown below) was used as the control compound (30) in this study to monitor the response of the THP-l cells. Xanthine analogs are known inhibitors of TNFα but not IL-1β. In the following experiments compound HWA-3138 was used as a positive control. [drawing 58]
Time of Addition. Varying concentrations of test or control compounds were added to THP-1 cells (1×10^6 cells/mL) at different time points post-stimulation using 0.5 μg of LPS (Sigma, lot number 43H40491) per mL in 300 μL of 10% RPMI in a 48 well plate. Six hours post-stimulationsupernatants were collected and assayed for TNFα or IL-1β production using a Biosource cytokine detection ELISA (Enzyme Linked Immunosorbent Assay) kit according to the supplier's instructions.
The membrane bound TNFα was separated from the free TNFα in the culture medium at 6 hours post-LPS stimulation as follows: The corresponding cells were centrifuged at 3500 rpm (~1,000×g) for 6 min. The supernatants were removed and the cell pellets were then resuspended in 200 μL of 0.25 mM Tris-HCl (pH 7.4). The cell associated TNFα was prepared by freezing the cell suspension in dry ice/ethanol and thawing at 37° C. three times with Vortexing in-between freeze-thaw cycles. Each cycle was 4-5 min apart.
To determine the long-term effects of phosphazole compound T70241 on TNFα production after a single treatment, THP-1 cells were pre-incubated with T70241, washed and resuspended in drug free medium. The xanthine analog HWA-3138 was used as a control.

[2] = tested on: IL-1β; experiment: Inhibition of IL-1β production in LPS-stimulated THP-1 cells (ELISA); format: cell-based, human; settings: for IC50: Homo sapiens, Table 2, LPS-stimulated THP-1, 6 h post-stimulation, read-out: IC50 IL-1β in THP-1 cells
Procedure: as §1
as §2, with “58] […]” for “58]”
THP-1 cells were cultured and IL-1β inhibition assays were conducted as described for TNFα in Example 46, except a commercially available IL-1β assay kit, obtained from R and D Systems, Minneapolis, Minn., was used instead of the TNFα kit.
With reference now to FIG. 8, for each concentration of T70241 tested, the membrane bound IL-1β was separated from the IL-1β found free in the culture medium at 6 hours post-LPS stimulation as described in Example 46 for TNFα, and the percent inhibition of each fraction was graphed.

[3] = Cytotoxicity on growing THP-1 cells (MTS assay); format: cell-based, human; settings: human, thp-1 cells; Table 2; drug dose required to inhibit logphase growing cells by 50%; read-out: TC50 Growing THP-1
Procedure: Cytotoxicity Analysis. The cytotoxicity of the compounds were assayed using the CellTiter 96™ Aqueous Non-Radioactive Cell Proliferation (MTS) Assay kit obtained from Promega (Madison, Wis.) following the instructions provided by the supplier. The viable cell number was determined by trypan blue staining and cells (THP-1) were resuspended in PRMI supplemented with 10% FBS (GIBCO). Eighty microliters of cell suspension (1.7×10^4cells/well) was dispensed onto a 96-well microtiter plates. At this time 20 μL of drug (or control) was added to appropriate wells. Each concentration was assayed in quadruplicate. The plates were incubated at 37° C. in a humidified 5% CO2 atmosphere for 4 days and MTS assay […] for each concentration and the data obtained was used to calculate TC50 (the concentration of the compound necessary to inhibit the cell growth by 50%) for each compound.

[4] = tested on: HSV-1; experiment: HSV-1 CPE assay in Vero cells; format: cell-based; settings: Human alphaherpesvirus 1, Vero
[5] = tested on: HSV-2; experiment: HSV-2 CPE assay in Vero cells; format: cell-based; settings: Human alphaherpesvirus 2, Vero
[6] = Cytotoxicity on growing MRC-5 cells (MTS); format: cell-based, human; settings: human, mrc-5 cells; Table 4; 50% inhibition of logphase growing cells; read-out: TC50 Growing MRC-5
Procedure: (§3) Cell Culture. Vero (African Green Monkey kidney cells) and MRC-5 (diploid Human Embryonic Lung fibroblasts) cells were obtained from the American Type Culture Collection (ATCC) and were grown in minimal essential medium (MEM) with Earl's salts and glutamine (GIBCO BRL, Life Technologies, Inc.) with 10% heat inactivated fetal bovine serum (GIBCO BRL) and penicillin (100 μg/mL)/streptomycin (100 μg/mL).
(§4) Cytotoxicity Analysis. The cytotoxicity of the compound was assayed using few the CellTiter 96™ Aqueous Non-Radioactive Cell Proliferation (MTS) Assay (Promega). Briefly, viable cell number was determined by trypan blue staining and cells (MRC-5 and Vero) were resuspended in minimal essential medium (MEM) supplemented with 10% FBS (GIBCO). Eighty microliters of cell suspension (1.7×10^4 cells/well) was dispensed onto a 96-well microtiter plates. At this time 20 μL of drug (or control) was added to appropriate wells. Each concentration was assayed in quadruplicate. The plates were incubated at 37° C. in a humidified 5% CO2 atmosphere for 4 days and MTS assay was performed according to the manufacturer's instructions. The average absorbence of the sample was graphed for each concentration and the data obtained was used to calculate TC50 (the concentration necessary to give one-half maximum growth) for each compound.

[7] = Cytotoxicity on static MRC-5 cells; format: cell-based; settings: human, Table 4, 50% cell death (static cells), read-out: TC50 Static MRC-5
Procedure: as §3, §4

[8] = Cytotoxicity on growing Vero cells (MTS); format: cell-based; settings: african green monkey, Table 4, 50% inhibition of logphase growing cells, read-out: TC50 Growing Vero
Procedure: as §3, §4

[9] = Cytotoxicity on static Vero cells; format: cell-based; settings: african green monkey, Table 4, 50% cell death (static cells), read-out: TC50 Static Vero
Procedure: as §3, §4

[10] = tested on: HCMV; settings: cited from earlier work
[11] = tested on: HCMV (Town strain); experiment: HCMV plaque reduction (CPE) assay in MRC-5 cells; format: cell-based, human cytomegalovirus; settings: Human betaherpesvirus 5, MRC5; Table 4; read-out: IC50 HCMV
Procedure: The adenine analog phosphazole (compound T70241) was assayed for antiviral activity using a HCMV plaque reduction assay, in accordance with known methods such as that described in U.S. Pat. No. 5,446,045.
as §3
CMV Cytopathic Effect (CPE) Assay. Assays were performed essentially as described by Lewis et al. (111), which report is incorporated herein by reference. MRC-5 cells (100,000 cells/well) were seeded in 24-well plates overnight. Medium was then removed and wells were rinsed once with 250 μL of 2% FCS-MEM before adding 40-50 pfu of HCMV (Town strain) to each well. After 2 hours of virus adsorption, the medium was removed and the cells were rinsed once with 2% FCS-MEM. Varying concentrations of the phosphazole compound in the culture medium (1 mL) was then added to appropriate wells and plates were incubated for 5-6 days at 37° C. in a humidified 5% CO2 atmosphere. Each concentration was tested in duplicate wells.
The extent of the plaque reduction was quantitated by removing the media and adding 200 μL of 0.1% crystal violet in 20% methanol to all wells. The crystal violet was then removed after 10 min staining at room temperature by rinsing in the sink with tap water and the plates dried overnight. The plaques were then counted using a Nikon inverted microscope.

[12] = tested on: adenosine deaminase (ADA); experiment: Enzymatic hydrolysis by adenosine deaminase; format: in vitro ADME, calf; settings: 25° C.
Procedure: Adenosine deaminase (ADA, adenosine aminohydrolase, EC 3.5.4.4, SIGMA) from calf intestinal mucosa was prepared to give a stock of 1 mg/mL (250-280 units/mL) in pH 7.4, 0.01 M phosphate buffer. The relative rates of hydrolysis of selected compounds by ADA and characterization of the products was carried as follows. […] Fifty-microliter aliquots were taken at time intervals and hydrolysis was quenched by mixing with 0.45 mL of distilled water and then the diluted sample was heated at 95° C. for 6 min to ensure enxyme deactivation. The decrease in substrate concentration and the formation of the products was followed over time by UV-spectroscopic analysis. Adenosine was used as a control in this experiment and one unit is defined as the amount of ADA that hydrolyzes 1.0 μmol of adenosine/min at 25° C.

[13] = tested on: TNFα; settings: by inhibition of PDE activity; cited from earlier work

Nc1ncnc2pcn([C@H]3C[C@H](O)[C@@H](CO)O3)c12 (stereo partly drawn) [T70265, 7-Amino-1-(2-deoxy-β-D-eythro-pentofuranosyl)-1,3-azaphospholo[4,5-d]pyrimidine]
IC50 [1]: 26.2 µg/mL (≈ 97.6 µM) | IC50 [2]: > 100 µg/mL | CC50 at 96 h [3]: 105 µg/mL (≈ 390 µM)

Cn1c(=O)c2c(pcn2C)n(C)c1=O (stereo not drawn) [T70271, 1,4,6-Trimethyl-1,3-azaphospholo[4,5-d]pyrimidine-5,7-dione]
IC50 [1]: 37.3 µg/mL (≈ 177 µM) | IC50 [2]: > 250 µg/mL

Nc1nc2c(ncn2COCCO)c(=O)[nH]1 [ACV, acyclovir, reference compound]
IC50 ([4]; Table 4): 0.1 µg/mL (≈ 0.444 µM) | IC50 ([5]; Table 4): 0.74 µg/mL (≈ 3.29 µM) | CC50 at 96 h [6]: > 250 µg/mL | CC50 at 96 h [7]: > 250 µg/mL | CC50 at 96 h [8]: > 250 µg/mL | CC50 at 96 h [9]: > 250 µg/mL

NC(=O)c1cn([C@H]2C[C@H](O)[C@@H](CO)O2)c2ncnc(N)c12 [2'-deoxysangivamycin]
activity against HCMV [10]: selective activity against HCMV

Nc1ncnc2pcn([C@@H]3O[C@H](CO)[C@@H](O)[C@H]3O)c12 (stereo partly drawn) [T70264, 7-Amino-1-(β-D-ribofuranosyl)-1,3-azaphospholo-[4,5-d]pyrimidine]
IC50 [1]: 126 µg/mL (≈ 444 µM) | IC50 [2]: > 100 µg/mL | CC50 at 96 h [3]: 118 µg/mL (≈ 413 µM)

N#Cc1cn([C@@H]2O[C@H](CO)[C@@H](O)[C@@H]2O)c2ncnc(N)c12 [ara-toyocamycin]
activity against HCMV [10]: selective activity against HCMV

Cn1c(=O)n(CCCCC(C)(C)O)c(=O)c2nc[nH]c21 [HWA-3138, reference compound]
inhibition of TNFα production ([1]; 10 and 100 μg/mL, THP-1, 6 h post-stimulation (FIG. 2)): no inhibition | IC50 [1]: 255 µg/mL (≈ 908 µM) | inhibition of IL-1β production ([2]; 10-250 μg/mL, THP-1 (FIG. 6)): does not inhibit IL-1β production | IC50 [2]: > 500 µg/mL | CC50 at 96 h [3]: 316 µg/mL (≈ 1130 µM)

Nc1ncnc2pcn(COCCO)c12 (stereo not drawn) [T70268, 7-Amino-1-[(2-hydroxyethoxy)methyl]-1,3-azaphospholo-[4,5-d]pyrimidine]
IC50 [1]: > 100 µg/mL | IC50 [2]: > 100 µg/mL | IC50 [11]: > 50 µg/mL | IC50 ([4]; Table 4): > 50 µg/mL | IC50 ([5]; Table 4): > 50 µg/mL | CC50 at 96 h [6]: > 50 µg/mL | CC50 at 96 h [7]: > 50 µg/mL | CC50 at 96 h [8]: > 50 µg/mL | CC50 at 96 h [9]: > 50 µg/mL

Nc1ncnc2c1ccn2[C@@H]1O[C@H](CO)[C@@H](O)[C@@H]1F [arafluoro-tubercidin]
activity against HCMV [10]: selective activity against HCMV

Nc1ncnc2c1ncn2[C@@H]1O[C@H](CO)[C@@H](O)[C@H]1O [Adenosine, reference compound]
IC50 [1]: 100 µg/mL (≈ 374 µM) | IC50 [2]: > 250 µg/mL | rate of hydrolysis by ADA [12]: 1.0 pmole/unit per min | suppression of TNFα production [13]: suppression of TNFα production

Nc1ncnc2pcn(COC(CO)CO)c12 (stereo not drawn) [T70269, 7-Amino-1-[(1,3-dihydroxy-2-propoxy)methyl]-1,3-azaphospholo [4,5-d]pyrimidine]
IC50 [1]: > 100 µg/mL | IC50 [2]: > 100 µg/mL | IC50 [11]: 26.1 µg/mL (≈ 102 µM) | IC50 [4]: 2.75 µg/mL (≈ 10.7 µM) | IC50 [5]: 27.8 µg/mL (≈ 108 µM) | CC50 at 96 h [6]: > 50 µg/mL | CC50 at 96 h [7]: > 50 µg/mL | CC50 at 96 h [8]: 41.4 µg/mL (≈ 162 µM) | CC50 at 96 h [9]: > 50 µg/mL

O=c1[nH]c(=O)c2[nH]cpc2[nH]1 (stereo not drawn) [T70270, 1,3-Azaphospholo[4,5-d]pyrimidine-5,7(1H, 4H,6H) -dione]
IC50 [1]: 239 µg/mL (≈ 1410 µM) | IC50 [2]: > 250 µg/mL

Nc1ncnc2nc[nH]c12 [Adenine, reference compound]
IC50 [1]: > 250 µg/mL | IC50 [2]: > 250 µg/mL

CC(=O)CCCCn1c(=O)c2c(ncn2C)n(C)c1=O [pentoxifylline]
suppression of TNFα production [13]: suppression of TNFα production

O=c1[nH]cnc2pc[nH]c12 (stereo not drawn) [T70256, 1,3-azaphospholo[4,5-d]pyrimidin-7(1H,6H)-one]
IC50 [1]: 168 µg/mL (≈ 1100 µM) | IC50 [2]: 170 µg/mL (≈ 1110 µM)
